As a reminder, the Ki is the equilibrium dissociation constant of an inhibitor or competing ligand from its target. High values mean lower affinity, low ones higher affinity.

The values that follow come from patent US4720486A, “Method of inhibiting vertebrate collagenase activity using peptide hydroxamic acid derivatives” (Monsanto Company, priority 1987, dated 1988).

Type in all cases: biochemical
Test [1] deals with T1, human skin fibroblast collagenase (Homo sapiens, UniProt P03956).
T1 construct: active collagenase isolated by this method consisted of two bands, a major species with molecular weight 45,000; host or cells: normal human skin fibroblasts CRL 1224 in SK Hepatoma conditioned medium
T1 sequence (P03956 100-469): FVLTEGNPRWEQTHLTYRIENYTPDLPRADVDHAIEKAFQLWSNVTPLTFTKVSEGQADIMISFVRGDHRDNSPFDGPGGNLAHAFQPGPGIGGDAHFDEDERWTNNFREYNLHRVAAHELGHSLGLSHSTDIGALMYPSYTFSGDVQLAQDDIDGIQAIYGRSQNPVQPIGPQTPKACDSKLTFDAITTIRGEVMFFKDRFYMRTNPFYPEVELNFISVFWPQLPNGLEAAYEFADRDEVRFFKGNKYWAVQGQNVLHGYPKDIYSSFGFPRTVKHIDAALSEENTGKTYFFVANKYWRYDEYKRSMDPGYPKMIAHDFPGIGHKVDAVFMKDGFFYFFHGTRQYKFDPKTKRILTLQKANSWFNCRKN
Nature of the test: Collagenase inhibition test (14C-collagen assay), skin fibroblast collagenase. The note with it: 0.50 M NaCl, 0.01 M CaCl2, 0.05 M Tris, pH 7.5, 35° C.; Dixon plot, single substrate concentration 10 μM collagen. The method, then:
(§1) ^14 C-collagen was prepared by reductive methylation of calf skin collagen at 4° C. using ^14 C-formaldehyde and sodium borohydride. Calf skin collagen (Sigma) was dissolved at 7.5 mg/ml in 60 ml of 0.10M acetic acid and dialyzed at 4° C. against 0.15M potassium phosphate, pH 7.6, for eight hours followed by dialysis overnight against 0.4M NaCl. The collagen solution was then adjusted to pH 9.0 by addition of 0.50M sodium borate and then 1 mCi of ^14 C-formaldehyde (10 mCi/mmol) was added. After one minute, 0.10M sodium borohydride (660 μl in 1.3 mM NaOH) was added in four aliquots, followed by an additional aliquot (340 μl) 30 minutes later. The solution was then dialyzed exhaustively against 0.01M acetic acid, centrifuged to remove particulates and stored frozen in 1 ml aliquots. Specific activity was 1.3×10^6 DPM/mg. Unlabeled collagen was prepared in the same way, stored frozen and mixed with labeled collagen at a ratio of 9 to 1. For assay, the diluted ^14 C-collagen was dialyzed 6-8 hours at 4° C. against 0.15M potassium phosphate, pH 7.6, followed by dialysis overnight against 0.4M sodium chloride. This solution was centrifuged to remove any undissolved collagen and stored at 4° C.
(§2) Collagenase asays were carried out according to the method of Terato et al., Biochim. Biophys. Acta 445, 753 (1976). They were performed in 1.5 ml polypropylene microfuge tubes. Each assay tube contained 50 μl of ^14 C-collagen solution (4 mg/ml) and 50 μl of 1.0M glucose, 0.10M Tris, 0.4M NaCl, 0.02M CaCl2, pH 7.5. This solution was incubated for ten minutes at 35° C. and the reaction initiated by the addition of 100 μl of enzyme solution. Those samples containing procollagenase were first activated by incubating 100 μl aliquots with 1-5 μl of 10 mg/ml trypsin (in 1 mM HCl) for 20 minutes at 23° C., followed by 20 μl of 5 mg/ml soybean trypsin inhibitor (in 0.05M Tris, 0.01M CaCl2, pH 7.5) to quench the trypsin activity. The collagenase assay was terminated after 30 minutes at 35° C. by the addition of 20 μl of 0.08M 1,10-phenanthroline in 50% (v/v) dioxane and the incubation was continued for one hour at 35° C. to denature the collagen digestion products. Each sample was cooled for 15 minutes at 23° and 200 μl of dioxane was added with vigorous vortexing to precipitate uncleaved collagen. Following centrifugation at 11,000 RPM, 350 μl aliquots were added to 5.0 ml of Pico-Fluor 30 to determine radioactivity.
(§3) Collagenase activities were measured in the presence of the test compounds by adding an aliquot of the compound (0-85 μl) and buffer to 100 μl of glucose-collagen solution to give a total volume of 185 μl, incubating at 35° C. for 10 minutes and then initiating the reaction with 15 μl of purified collagenase. The rest of the assay was performed as described above.
(§4) To determine the mechanism of inhibition, the following equation was used [(Holmquist and Vallee, J. Biol. Chem. 249, 4601 (1974)] [formula] where Ao is the activity in the absence of inhibitor and AI is the activity in the presence of inhibitor.
One vial of normal skin fibroblasts was purchased (American Type Cell Culture CRL 1224), thawed at 37° C. and transferred to a 150 cm^2 T-flask. Fifty ml of DMEM containing 10% FBS were added and the cells incubated for one week at 37° C. under 5% CO2. The cells were then split into three T-flasks. When the flasks became overgrown with cells, normal media was replaced with SK Hepatoma conditioned media and changed twice a week. This media was stored and used as the starting material for collagenase isolation.
The other test compounds were assumed to inhibit by the same mechanism so that all studies were performed at only a single substrate concentration, 10μM, and the KI values were determined from the intersection with the abscissa.

Test [2] deals with T2, human synovial collagenase (Homo sapiens, UniProt P03956).
T2 construct: endogenous in cells; host or cells: primary human synovial cells from a knee synovectomy, stimulated with SK Hepatoma conditioned medium
T2 sequence (P03956 100-469): T1 sequence (P03956 100-469)
As to the kind of experiment: Collagenase inhibition test (14C-collagen assay), synovial collagenase. Conditions: for Ki: 0.50 M NaCl, 0.01 M CaCl2, 0.05 M Tris, pH 7.5, 35° C., Dixon plot, single substrate concentration 10 μM collagen. The protocol: as §1, §2, §3, §4
Approximately 2.0 gms of synovial tissue were obtained from a patient undergoing synovectomy of the knee. All procedures were carried out in a laminar flow hood under aseptic conditions. The tissue was placed in 250 ml McCoys 5A (modified) medium containing 200 μg/ml gentamicin and stored overnight at 0° C. The next day the tissue was warmed to room temperature, cut into 0.25 cm pieces and added to 11 ml of serum-free DMEM, containing 4 mg/ml clostridial collagenase (Worthington). After incubating the mixture for one hour at room temperature, an equal volume of 0.25% trypsin was added and the incubation continued for an additional thirty minutes. The cells were spun down at 400×g for ten minutes, resuspended in 20 ml trypsin/EDTA (Gibco 10×) and incubated for 30 minutes with occasional mixing by drawing through a 25 ml pipet. The suspension was centrifuged and the pellet was washed two times with PBS:DMEM (1:1) containing 10% FBS. […]

The target of test [3] is T3, human collagenase isolated from skin fibroblasts and synovial cells (Homo sapiens, UniProt P03956).
T3 construct: endogenous in cells; host or cells: human skin fibroblasts (CRL 1224) or primary human synovial cells; enzyme purified from conditioned medium
T3 sequence (P03956 100-469): T1 sequence (P03956 100-469)
Nature of the test: Collagenase inhibition, (enzyme source not distinguished). The protocol: as §1, §2
Collagenase activities were measured in the presence of the test compounds by adding an aliquot of the compound (0-85 μl) and buffer to 100 μl of glucose-collagen solution to give a total volume of 185 μl, incubating at 35° C. for 10 minutes and then initiating the reaction with 15 μl of purified collagenase. The rest of the assay was performed as described above. […]

Where a SMILES comes first, the peptide text is derived from it. The star is where a group is joined. Cbz = O=C(OCc1ccccc1)*; NHOH = ON*

For the compound `CC(C)CC(NC(=O)OCc1ccccc1)C(=O)NCC(=O)NO` (centres unmarked) [Z--Leu--Gly--NHOH], the results for the Ki in test [1] and in test [2] were 480 µM and 170 µM, respectively.
Turning to `CC(C)C[C@H](NC(=O)[C@@H]1CCCN1C(=O)OCc1ccccc1)C(=O)NCC(=O)NO` [Z--Pro--Leu--Gly--NHOH, N-Benzyloxycarbonyl-L-prolyl-L-leucylglycine Hydroxamic Acid] (Cbz-Pro-Leu-Gly-{NHOH}), the Ki in test [1] was found to be 40 µM; in test [2] it was 47 µM. Also, the “mechanism of inhibition (Dixon plot)” value in test [2] (three substrate concentrations, 3.9 μM, 1.3 μM and 0.7 μM collagen, FIG. 1) was “non-competitive inhibition”. For the same compound, the “times more active than Zincov” value in test [3] (estimated, ratio of KI values) is reported as 50 to 100 times. In test [3] (human collagenase), this compound came in with a KI of 40 µM. In test [3] (ratio of KI values), the “times more effective than the corresponding Z--Leu--Leu--Gly--NHOH analog” value is given as “ten”.
`O=C(CNC(=O)CNC(=O)OCc1ccccc1)NO` [Z--Gly--Gly--NHOH] (Cbz-Gly-Gly-{NHOH}): the Ki came to 3000 µM in test [1] and 2000 µM in test [2].
Take `CC(NC(=O)OCc1ccccc1)C(=O)NCC(=O)NO` (centres unmarked) [Z--Ala--Gly--NHOH]: the values for the Ki in test [1] and in test [2] were 1300 µM and 2600 µM, respectively.
As for `O=C(CNC(=O)C(Cc1ccccc1)NC(=O)OCc1ccccc1)NO` (centres unmarked) [Z--Phe--Gly--NHOH], the Ki in test [1] stood at 150 µM; in test [2], 100 µM.
Regarding `O=C(CNC(=O)OCc1ccccc1)NO` [Z--Gly--NHOH], the Ki in test [1] came out at 600 µM; in test [2] it was 960 µM.
On to `NCC(=O)NO` [Gly--NHOH], for which the Ki is more than 1000 µM in test [1] and 18000 µM in test [2].
Consider `CSCCC(NC(=O)OCc1ccccc1)C(=O)NCC(=O)NO` (centres unmarked) [Z--Met--Gly--NHOH], for which the figures for the Ki in test [1] and in test [2] were 150 µM and 200 µM, respectively.
`CC(C)C[C@H](NC(=O)OCc1ccccc1)C(=O)N[C@@H](CC(C)C)C(=O)NCC(=O)NO` [Z--Leu--Leu--Gly--NHOH] (Cbz-Leu-Leu-Gly-{NHOH}): the figures for the Ki in test [1] and in test [2] were 300 µM and 330 µM, respectively.
In turn, `CC(C)CC(C(=O)NO)C(=O)N[C@@H](C)C(=O)NCC(N)=O` (stereo partly drawn) [Zincov, 2-(N-Hydroxycarboxamido)-4-methylpentanoyl-L-Ala-glycine amide] showed an inhibitory constant (Ki) in test [3] (human collagenase) of 2000 µM.
